The molecules below were run against T1, TAK1-TAB1 (Homo sapiens, UniProt O43318) (assay: TAK1-TAB1 binding inhibitory potency (LanthaScreen competitive binding assay, kinase tracer-236)). Conditions: 10 nM TAK1-TAB1, 100 nM kinase tracer-236; read-out: TAK1-Tab Inhibition IC50.
T1 sequence (O43318 with tags, fused parts or gaps limits assumed): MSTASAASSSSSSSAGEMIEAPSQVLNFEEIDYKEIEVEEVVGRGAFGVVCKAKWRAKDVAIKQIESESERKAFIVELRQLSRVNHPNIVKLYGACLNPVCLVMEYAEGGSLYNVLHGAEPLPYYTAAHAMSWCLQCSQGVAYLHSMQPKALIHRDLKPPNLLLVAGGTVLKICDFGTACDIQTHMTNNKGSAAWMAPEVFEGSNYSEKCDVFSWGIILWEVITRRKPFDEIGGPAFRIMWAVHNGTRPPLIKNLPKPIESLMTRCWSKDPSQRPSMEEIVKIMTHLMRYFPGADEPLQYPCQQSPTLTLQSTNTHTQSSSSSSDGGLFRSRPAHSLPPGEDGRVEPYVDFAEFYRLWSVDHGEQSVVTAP
Text: TAK1-TAB1 Binding Inhibitory Potency:
The ability of candidate compounds to interact with TAK1-TAB1 is quantitated by a competitive binding assay using the LanthaScreen technology developed by Life Technologies. This assay is based on the binding of a proprietary, Alexa Fluor® 647-labeled, ATP-competitive kinase inhibitor (kinase tracer-236) to the TAK1-TAB1 construct in presence of a europium-conjugated antibody, resulting in a FRET (fluorescence resonance energy transfer) signal. Displacement of the kinase tracer by compound results in a lower emission ratio upon excitation of the europium chelate. Candidate compounds are designed as potential irreversible inhibitors of TAK1-TAB1, capable of ligating to an active site cysteine residue. The time dependent nature of irreversible inhibition is investigated by performing the binding assay with and without a pre-incubation of compound and TAK1-TAB1.
The inhibitory potency of candidate compounds is measured in 20 mM HEPES pH 7.5, 10 mM MgCl2, 0.01% BSA, 0.0005% Tween-20, and 2% DMSO in the presence of 10 nM TAK1-TAB1, 2 nM Eu-anti-his antibody, and 100 nM kinase tracer-236 using a 384-well plate format. Background signal is defined in the absence of TAK1-TAB1 and uninhibited signal is defined in the presence of vehicle (2% DMSO) alone. Compounds were evaluated in an 11 point dose-response ranging from 20 μM to 0.34 nM. The binding assays are performed under two conditions to evaluate time dependence of inhibition. For the pre-incubation assay, TAK1-TAB1 and Eu-anti-his antibody are preincubated with compound or vehicle for two hours prior to the addition of kinase tracer. The non-preincubated assay is run in which TAK1-TAB1 and Eu-anti-his antibody are added to a mixture of compound and kinase tracer. IC50 values of compounds are determined using a 4 parameter logistical fit of emission ratio as a function of the concentration of compound. […]

| SMILES | IC50 |
| --- | --- |
| C=C(C)C(=O)Nc1c[nH]c2ncc(-c3ccccc3)cc12 [Example 233, N-(5-phenyl-1H-pyrrolo[2,3-b]pyridin-3-yl) methacrylamide] | > 1000 nM |
| NC(=O)/C=C/c1c[nH]c2ncc(-c3ccc(C(=O)c4cc(F)cc(F)c4)cc3)cc12 [Example 362, (E)-3-(5-(4-(3,5-difluorobenzoyl)phenyl)-1H-pyrrolo[2,3-b]pyridin-3-yl)acrylamide] | ≤ 1000 nM |
| CCOCCOc1ccc(-c2cnc3[nH]cc(/C=C/C(N)=O)c3c2)cn1 [Example 336, (E)-3-(5-(6-(2-ethoxyethoxy)pyridin-3-yl)-1H-pyrrolo[2,3-b]pyridin-3-yl)acrylamide] | ≤ 1000 nM |
| NC(=O)/C=C/c1c[nH]c2ncc(C(=O)c3ccc(F)cc3)cc12 [Example 353, (E)-3-(5-(4-fluorobenzoyl)-1H-pyrrolo[2,3-b]pyridin-3-yl)acrylamide] | ≤ 1000 nM |
| Cc1nc2[nH]cc(/C=C/C(N)=O)c2cc1-c1cccnc1 [Example 330, (E)-3-(6-methyl-5-(pyridin-3-yl)-1H-pyrrolo[2,3-b]pyridin-3-yl)acrylamide] | ≤ 1000 nM |
| Cc1cc(-c2cnc3[nH]cc(/C=C/C(N)=O)c3c2)cc(C(F)(F)F)c1 [Example 348, (E)-3-(5-(3-methyl-5-(trifluoromethyl)phenyl)-1H-pyrrolo[2,3-b]pyridin-3-yl)acrylamide] | ≤ 1000 nM |
| N#CC(C#N)=Cc1c[nH]c2ncc(-c3ccccc3)cc12 [Example 242, 2-((5-phenyl-1H-pyrrolo[2,3-b]pyridin-3-yl)methylene) malononitrile] | > 1000 nM |
| CC(C)(O)c1cccc(-c2cnc3[nH]cc(/C=C(\C#N)C(N)=O)c3c2)c1 [Example 361, (E)-2-cyano-3-(5-(3-(2-hydroxypropan-2-yl)phenyl)-1H-pyrrolo[2,3-b]pyridin-3-yl)acrylamide] | ≤ 1000 nM |
| NC(=O)/C=C/c1c[nH]c2ncc(N3CCN(C(=O)Oc4ccccc4)CC3)cc12 [Example 302, (E)-phenyl 4-(3-(3-amino-3-oxoprop-1-en-1-yl)-1H-pyrrolo[2,3-b]pyridin-5-yl)piperazine-1-carboxylate] | ≤ 1000 nM |
| C/C=C/C(=O)Nc1c[nH]c2ncc(-c3ccccc3)cc12 [Example 235, (E)-N-(5-phenyl-1H-pyrrolo[2,3-b]pyridin-3-yl)but-2-enamide] | > 1000 nM |
| NC(=O)/C=C/c1c[nH]c2ncc(-c3ccc(C(O)c4nccs4)cc3)cc12 (stereo not shown) [Example 322, (E)-3-(5-(4-(hydroxy(thiazol-2-yl)methyl)phenyl)-1H-pyrrolo[2,3-b]pyridin-3-yl)acrylamide] | ≤ 1000 nM |
| CN1CCC(C(=O)c2ccc(-c3cnc4[nH]cc(/C=C/C(N)=O)c4n3)cc2)CC1 [Example 333, (E)-3-(2-(4-(1-methylpiperidine-4-carbonyl)phenyl)-5H-pyrrolo[2,3-b]pyrazin-7-yl)acrylamide] | ≤ 1000 nM |
| NC(=O)/C=C/c1c[nH]c2ncc(-c3cc(Cl)cc(C(F)(F)F)c3)cc12 [Example 347, (E)-3-(5-(3-chloro-5-(trifluoromethyl)phenyl)-1H-pyrrolo[2,3-b]pyridin-3-yl)acrylamide] | ≤ 1000 nM |
| NC(=O)/C=C/c1c[nH]c2ncc(-c3ccc(Oc4ccccc4)nc3)cc12 [Example 345, (E)-3-(5-(6-phenoxypyridin-3-yl)-1H-pyrrolo[2,3-b]pyridin-3-yl)acrylamide] | ≤ 1000 nM |
| Cc1nc(C(=O)N(C)C)ccc1-c1cnc2[nH]cc(/C=C/C(N)=O)c2c1 [Example 351, (E)-5-(3-(3-amino-3-oxoprop-1-en-1-yl)-1H-pyrrolo[2,3-b]pyridin-5-yl)-N,N,6-trimethyl-picolinamide] | ≤ 1000 nM |
| COCCN(C)C(=O)c1cnc2[nH]cc(/C=C/C(N)=O)c2c1 [Example 357, (E)-3-(3-amino-3-oxoprop-1-en-1-yl)-N-(2-methoxyethyl)-N-methyl-1H-pyrrolo[2,3-b]pyridine-5-carboxamide] | ≤ 1000 nM |
| O=C(Nc1c[nH]c2ncc(-c3ccccc3)cc12)C1=CCCC1 [Example 232, N-(5-phenyl-1H-pyrrolo[2,3-b]pyridin-3-yl)cyclopent-1-enecarboxamide] | > 1000 nM |

| SMILES | IC50 |
| --- | --- |
| CCC(C)(O)c1ccc(-c2cnc3[nH]cc(/C=C/C(N)=O)c3c2)cc1 (stereo not shown) [Example 310, (E)-3-(5-(4-(2-hydroxybutan-2-yl)phenyl)-1H-pyrrolo[2,3-b]pyridin-3-yl)acrylamide] | ≤ 1000 nM |
| NC(=O)/C=C/c1c[nH]c2ncc(-c3cccc(Oc4ccccc4)c3)cc12 [Example 341, (E)-3-(5-(3-phenoxyphenyl)-1H-pyrrolo[2,3-b]pyridin-3-yl)acrylamide] | ≤ 1000 nM |
| CC(C)c1ccc(C(=O)N2CCN(c3cnc4[nH]cc(/C=C/C(N)=O)c4c3)CC2)cc1 [Example 335, (E)-3-(5-(4-(4-isopropylbenzoyl)piperazin-1-yl)-1H-pyrrolo[2,3-b]pyridin-3-yl)acrylamide] | ≤ 1000 nM |
| CC#CC(=O)Nc1c[nH]c2ncc(-c3ccccc3)cc12 [Example 237, N-(5-phenyl-1H-pyrrolo[2,3-b]pyridin-3-yl)but-2-ynamide] | ≤ 1000 nM |
| NC(=O)/C=C/c1c[nH]c2ncc(N3CCN(C(=O)c4ccc(F)cc4F)CC3)cc12 [Example 332, (E)-3-(5-(4-(2,4-difluorobenzoyl)piperazin-1-yl)-1H-pyrrolo[2,3-b]pyridin-3-yl)acrylamide] | ≤ 1000 nM |
| CC(C)(O)c1cccc(-c2cnc3[nH]cc(C=C(C(N)=O)C(N)=O)c3c2)c1 [Example 365, 2-((5-(3-(2-hydroxypropan-2-yl)phenyl)-1H-pyrrolo[2,3-b]pyridin-3-yl)methylene) malonamide] | ≤ 1000 nM |
| NC(=O)/C=C/c1c[nH]c2ncc(-c3ccc(C(=O)c4nccs4)cc3)cc12 [Example 324, (E)-3-(5-(4-(thiazole-2-carbonyl)phenyl)-1H-pyrrolo[2,3-b]pyridin-3-yl)acrylamide] | ≤ 1000 nM |
| NC(=O)/C=C/c1c[nH]c2ncc(-c3ccc(N4CCCC4)nc3)nc12 [Example 254, (E)3-(2-(6-(pyrrolidin-1-yl)pyridin-3-yl)-5H-pyrrolo[2,3-b]pyrazin-7-yl)acrylamide] | > 1000 nM |
| CC(C)(O)c1ccc(-c2cnc3[nH]cc(/C=C(\C#N)C(N)=O)c3c2)cc1 [Example 360, (E)-2-cyano-3-(5-(4-(2-hydroxypropan-2-yl)phenyl)-1H-pyrrolo[2,3-b]pyridin-3-yl)acrylamide] | ≤ 1000 nM |
| CC(=O)c1cncc(-c2cnc3[nH]cc(/C=C/C(N)=O)c3c2)c1 [Example 304, (E)-3-(5-(5-acetylpyridin-3-yl)-1H-pyrrolo[2,3-b]pyridin-3-yl)acrylamide] | ≤ 1000 nM |
| NC(=O)/C=C/c1c[nH]c2ncc(-c3ccc4c(c3)CCC4=O)nc12 [Example 343, (E)-3-(2-(1-oxo-2,3-dihydro-1H-inden-5-yl)-5H-pyrrolo[2,3-b]pyrazin-7-yl)acrylamide] | ≤ 1000 nM |
| CCC(=O)c1ccc(-c2cnc3[nH]cc(/C=C/C(N)=O)c3n2)c(C)c1 [Example 314, (E)-3-(2-(2-methyl-4-propionylphenyl)-5H-pyrrolo[2,3-b]pyrazin-7-yl)acrylamide] | ≤ 1000 nM |
| C=CC(=O)Nc1c[nH]c2ncc(-c3ccccc3)cc12 [Example 236, N-(5-phenyl-1H-pyrrolo[2,3-b]pyridin-3-yl)acrylamide] | > 1000 nM |
| CC(C)COc1ccc(-c2cnc3[nH]cc(/C=C/C(N)=O)c3c2)cn1 [Example 325, (E)-3-(5-(6-isobutoxypyridin-3-yl)-1H-pyrrolo[2,3-b]pyridin-3-yl)acrylamide] | ≤ 1000 nM |
| NC(=O)/C=C/c1c[nH]c2ncc(-c3ccc4c(c3)C(=O)CC4)cc12 [Example 352, (E)-3-(5-(3-oxo-2,3-dihydro-1H-inden-5-yl)-1H-pyrrolo[2,3-b]pyridin-3-yl)acrylamide] | ≤ 1000 nM |
| NC(=O)/C=C/c1c[nH]c2ncc(N3CC(NC(=O)C4CCCC4)C3)cc12 [Example 321, (E)-N-(1-(3-(3-amino-3-oxoprop-1-en-1-yl)-1H-pyrrolo[2,3-b]pyridin-5-yl)azetidin-3-yl) cyclopentane-carboxamide] | ≤ 1000 nM |
| CC(C)(O)c1ccc(-c2cnc3[nH]cc(/C=C/C(N)=O)c3c2)cn1 [Example 312, (E)-3-(5-(6-(2-hydroxypropan-2-yl)pyridin-3-yl)-1H-pyrrolo[2,3-b]pyridin-3-yl)acrylamide] | ≤ 1000 nM |
